According to patent publication US9212151B2, “Heterocyclic compounds useful for kinase inhibition” (Amitech Therapeutic Solutions, Inc., priority 2010, dated 2015):

Experiment: MTT cell viability assay, compounds at 5, 1 and 0.2 μM, 48 hours
Assay type: cell-based
Conditions: human, A549 tumor cells
Protocol: MTT assay is used to determine cell proliferation, percent of viable cells, and cytotoxicity. MTT (3-[4,5-dimethylthiazol-2-yl]2,5-diphenyltetrazolium bromide) is a yellow dye, which can be absorbed by the living cells and be reduced to purplish blue formazan crystals by succinate tetrazolium reductase in mitochondria. Formazan formation can therefore be used to assess and determine the survival rate of cells.
Tumor cells (A549) were plated at 2500 cells/well of a 96-well plate in complete growth medium (DMEM+10% FBS, antibiotic/antimycotic, fungizone, L-glutamine, sodium pyruvate, and non-essential amino acids). The cells were allowed to grow overnight. After cell proliferation, the cells were washed and re-suspended in fresh culture medium and placed in 96 well plates.
To each of the 96 well plates containing A549 and a control, 5, 1, and 0.2 μM of the exemplary compounds 1-200 were add. The 96 well plates were incubated for 48 hours. Cell viability was measured by adding MTT (Sigma) at 5 mg/ml for 4 h to the cells and then removing the medium and resuspending each well in 50 μl DMSO to solubilize the crystals. The 96-well plates were read on a plate-scanning spectrophotometer (BioTek) at an absorbance of […]. The survival rate of cells was calculated based on the measurement of absorption at the 570 nm wavelength by enzyme immunoassay analyzer.

Structure (SMILES): CC(C)(C)Sc1nc(N)cc(Oc2ccc(-c3nnc(Nc4cccc(C(F)(F)F)c4)[nH]3)cc2)n1 [Compound 80]
- viability at 48 h, 0.2 µM: > 70%
- viability at 48 h, 1 µM: 50 to 70%
- viability at 48 h, 5 µM: < 50%

Structure (SMILES): FC(F)(F)c1cccc(Nc2nnc(-c3ccc(Oc4ccncc4C(F)(F)F)cc3)[nH]2)c1 [Compound 8]
- viability at 48 h, 0.2 µM: > 70%
- viability at 48 h, 1 µM: > 70%
- viability at 48 h, 5 µM: 50 to 70%

Structure (SMILES): CSc1nc(N)cc(Oc2ccc(-c3nnc(Nc4cccc(C(F)(F)F)c4F)[nH]3)cc2)n1 [Compound 137]
- viability at 48 h, 0.2 µM: > 70%
- viability at 48 h, 1 µM: < 50%
- viability at 48 h, 5 µM: < 50%

Structure (SMILES): CSc1nc(N)cc(Oc2ccc(-c3nnc(Nc4cccc(CC#N)c4)[nH]3)cc2)n1 [Compound 130]
- viability at 48 h, 0.2 µM: > 70%
- viability at 48 h, 1 µM: > 70%
- viability at 48 h, 5 µM: < 50%

Structure (SMILES): COc1cc(Oc2cccc(-c3nnc(Nc4cccc(C(F)(F)F)c4)[nH]3)c2)ccn1 [Compound 90]
- viability at 48 h, 0.2 µM: > 70%
- viability at 48 h, 1 µM: > 70%
- viability at 48 h, 5 µM: > 70%

Structure (SMILES): FC(F)(F)c1cccc(Nc2nnc(-c3cccc(Oc4ccnc5ccccc45)c3)o2)c1 [Compound 42]
- viability at 48 h, 0.2 µM: > 70%
- viability at 48 h, 1 µM: > 70%
- viability at 48 h, 5 µM: > 70%

Structure (SMILES): FC(F)(F)c1cccc(-c2nnc(Nc3ccc(Oc4cccnc4)cc3)[nH]2)c1 [Compound 174]
- viability at 48 h, 0.2 µM: > 70%
- viability at 48 h, 1 µM: > 70%
- viability at 48 h, 5 µM: > 70%

Structure (SMILES): FC(F)(F)c1cccc(Nc2nnc(-c3ccc(OCc4ccncc4)cc3)[nH]2)c1 [Compound 143]
- viability at 48 h, 0.2 µM: > 70%
- viability at 48 h, 1 µM: > 70%
- viability at 48 h, 5 µM: > 70%

Structure (SMILES): FC(F)(F)c1cccc(Nc2nnc(-c3cccc(Oc4nccc5ccccc45)c3)[nH]2)c1 [Compound 166]
- viability at 48 h, 0.2 µM: > 70%
- viability at 48 h, 1 µM: > 70%
- viability at 48 h, 5 µM: > 70%

Structure (SMILES): Cc1cc(Oc2cccc(-c3nnc(Nc4cccc(C(F)(F)F)c4)[nH]3)c2)ccn1 [Compound 91]
- viability at 48 h, 0.2 µM: > 70%
- viability at 48 h, 1 µM: > 70%
- viability at 48 h, 5 µM: 50 to 70%

Structure (SMILES): FC(F)(F)Oc1ccc2c(Oc3cccc(-c4nnc(Nc5cccc(C(F)(F)F)c5)[nH]4)c3)ccnc2c1 [Compound 173]
- viability at 48 h, 0.2 µM: > 70%
- viability at 48 h, 1 µM: > 70%
- viability at 48 h, 5 µM: > 70%

Structure (SMILES): CSc1nc(N)cc(Oc2ccc(-c3nnc(NC4CCCCC4)[nH]3)cc2)n1 [Compound 155]
- viability at 48 h, 0.2 µM: > 70%
- viability at 48 h, 1 µM: > 70%
- viability at 48 h, 5 µM: < 50%

Structure (SMILES): CSc1nc(N)cc(Oc2ccc(Nc3nnc(-c4cccc(Cl)c4)[nH]3)cc2)n1 [Compound 180]
- viability at 48 h, 0.2 µM: > 70%
- viability at 48 h, 1 µM: > 70%
- viability at 48 h, 5 µM: 50 to 70%

Structure (SMILES): FC(F)(F)c1cccc(Nc2nnc(-c3cccc(Oc4ccnc5[nH]ccc45)c3)[nH]2)c1 [Compound 85]
- viability at 48 h, 0.2 µM: > 70%
- viability at 48 h, 1 µM: > 70%
- viability at 48 h, 5 µM: 50 to 70%

Structure (SMILES): CSc1nc(N)cc(Oc2cc(-c3nnc(Nc4cccc(C(F)(F)F)c4)[nH]3)ccc2C)n1 [Compound 179]
- viability at 48 h, 0.2 µM: > 70%
- viability at 48 h, 1 µM: > 70%
- viability at 48 h, 5 µM: 50 to 70%

Structure (SMILES): FC(F)(F)c1cccc(Nc2nnc(-c3ccc(Oc4ccnc(Cl)c4)cc3)[nH]2)c1 [Compound 6]
- viability at 48 h, 0.2 µM: > 70%
- viability at 48 h, 1 µM: 50 to 70%
- viability at 48 h, 5 µM: < 50%

Structure (SMILES): FC(F)(F)c1cccc(Nc2nnc(-c3ccc(Oc4ccnc5cc(C(F)(F)F)ccc45)cc3)[nH]2)c1 [Compound 148]
- viability at 48 h, 0.2 µM: > 70%
- viability at 48 h, 1 µM: > 70%
- viability at 48 h, 5 µM: > 70%

Structure (SMILES): FC(F)(F)c1cccc(Nc2nnc(-c3ccc(Oc4cncnc4)cc3)[nH]2)c1 [Compound 83]
- viability at 48 h, 0.2 µM: > 70%
- viability at 48 h, 1 µM: > 70%
- viability at 48 h, 5 µM: > 70%

Structure (SMILES): COc1nccc(Oc2cccc(-c3nnc(Nc4cccc(C(F)(F)F)c4)[nH]3)c2)n1 [Compound 88]
- viability at 48 h, 0.2 µM: > 70%
- viability at 48 h, 1 µM: > 70%
- viability at 48 h, 5 µM: > 70%

Structure (SMILES): FC(F)(F)c1cccc(Nc2nnc(-c3cccc(Oc4cncc5ccccc45)c3)[nH]2)c1 [Compound 164]
- viability at 48 h, 0.2 µM: > 70%
- viability at 48 h, 1 µM: > 70%
- viability at 48 h, 5 µM: 50 to 70%

Structure (SMILES): O=[N+]([O-])c1cc(F)cc(Oc2ccc(-c3nnc(Nc4cccc(C(F)(F)F)c4)[nH]3)cc2)c1 [Compound 147]
- viability at 48 h, 0.2 µM: > 70%
- viability at 48 h, 1 µM: > 70%
- viability at 48 h, 5 µM: 50 to 70%

Structure (SMILES): CSc1nc(N)cc(Oc2ccc(-c3nnc(Nc4ccc(Cl)c(C(F)(F)F)c4)[nH]3)cc2)n1 [Compound 66]
- viability at 48 h, 0.2 µM: > 70%
- viability at 48 h, 1 µM: > 70%
- viability at 48 h, 5 µM: < 50%
